Laboratory results: PMC2763920 (Electrophoresis, 2009)

Experiments:
[1] = test system: GST-Fyn-SH3-SH2; test: High-speed CE competition / binding, GST-Fyn-SH3-SH2 with Fluor-Fyn peptide
[2] = test system: Fyn-SH3-SH2; conditions: 100 V/cm for Ld of 30 cm; 100 and 200 V/cm for Ld of 40 cm; t1/2 not measured
[3] = test system: GST-Fyn-SH3-SH2; test: NECEEM, GST-Fyn-SH3-SH2:Fluor-Fyn peptide complex; format: binding; conditions: 2 μM GST-Fyn-SH3-SH2, 100 nM Fluor-Fyn peptide, pH 8.5

fluorescein-EEEEPQpYEEIPIYL [Fluor-Fyn peptide]
number of complexes detected (high-speed CE), GST-Fyn-SH2-SH3 ([1]; 500 nM protein, 200 nM Fluor-Fyn peptide): two distinct complexes were detected
complex 1-to-complex 2 ratio with increasing peptide concentration ([1]; Fluor-Fyn peptide 50 nM to 700 nM, protein 500 nM): decreases with increasing peptide concentration
protein concentration dependency of complex formation: low range ([1]; GST-Fyn-SH3-SH2 0.1 μM to 0.5 μM, Fluor-Fyn peptide 200 nM): complex 2 increases
complex expected to dissociate over the course of separation ([1]; for t1/2 of 22 s and separation time of 3.8 s): 2%
dissociation of the complex at low electric field (NECEEM) [2]: complete dissociation of the complex
complexes observed (NECEEM) [3]: two incompletely resolved peaks
